From USRE39155E1, “Use of 1,3-oxathiolane nucleoside analogues in the treatment of hepatitis B” (Shire BioChem Inc., priority 1991, dated 2006)
Values after ≈ are worked out from the molar mass of the structure shown. Read-outs that look alike come from different tables or passages of the source.

Tests used:
hepatitis B virus = assay: General statement of activity against hepatitis B virus in vitro and in vivo
Duck hepatitis B virus = assay: Activity against Duck hepatitis B virus in primary duck hepatocyte cultures, DHBV DNA dot-blot; format: cell-based; settings: DHBV-infected primary duck hepatocytes
Procedure: The DNA from DHBV-infected hepatocytes was extracted and spotted onto a nitrocellular filter. […] The DNA was extracted from 6-cm cell culture dishes at various times post-plating. In the VC group, cells were harvested at 2, 6, 8, 10, 14, 18 and 20 days. Duplicate samples were spotted for days 14, 18 and 20. […] Drugs were added to the culture at 2 days post-plating and maintained throughout media changes every 2 days. The total intracellular DNA was extracted from cells using the standard phenol extraction method. […] The pellet of nucleic acid was washed with ethanol and dried. The DNA was dissolved in a solution containing 12.5 mM Tris HCl, pH 7.5, 10 mM EDTA, 30% glycerol and 0.01% bromophenol blue.

human hepatitis B virus = assay: 2.2.15 cells (Hep G2 transfected with HBV genomic DNA), extracellular HBV DNA dot-blot after 10 day treatment; format: cell-based
Procedure: (ii) The method used for this test is described in detail in Korba et al. Antiviral Research 15, 217-228, 1992, and summarised below.
Hep G2 cells transfected with human hepatitis B virus genomic DNA (2.2.15 cells) were grown and maintained in RPMI-1640 culture medium containing 5% foetal bovine serum, 2 mM glutamine and 50 μg/ml gentamicin sulphate, and checked routinely for G418 resistance. Cultures of 2.2.15 cells were grown to confluence in 24 well tissue culture plates and maintained for 2 to 3 days in that condition prior to drug treatment.
These solutions were diluted as needed in culture medium.
The culture medium on the confluent cells was changed 24 hours prior to exposure to test compounds. During the 10 day treatment the culture medium was changed daily. After 10 days of treatment the culture medium was collected and frozen at −70° C. for HBV DNA analysis.
To analyse extracellular HBV DNA, 0.2 ml samples of culture medium were incubated for 20 minutes at 25° C. in 1M NaOH/10X SSC (1X SSC is 0.15M NaCl/0.015 M Sodium Citrate, pH 7.2) and then applied to nitrocellulose membranes presoaked in 20X SSC using a blotting apparatus. Samples were neutralised by washing twice with 0.5 ml of 1M Tris, pH 7.2/2M NaCl and once with 5 ml of 20X SSC. Filters were then rinsed in 2X SSC and baked at 80° C. for 1 hour under vacuum.
A purified 3.2 kb EcoRl HBV DNA fragment was labelled with [^32P]dCTP by nick translation and used as a probe to detect HBV DNA on the dot-blot by DNA hybridisation. After washing, the hybridised blot was dried and ^32P was quantified using an Ambis beta scanner.

[1] = Duck hepatitis B virus, Hepatocyte, read-out: IC50
[2] = 2.2.15 cells, 10 day treatment, extracellular HBV DNA, read-out: IC50

## Nc1ccn(C2CSC(CO)O2)c(=O)n1 (racemic) [Racemate, cis-4-amino-1-(2-hydroxymethyl-1,3-oxathiolan-5-yl-(1H)-pyrimidin-2-one]
Hepatitis B virus; listed as BCH-189
  activity against the hepatitis B virus: active both in vitro and in vivo
Hepatitis B virus; listed as compound of formula (I)
  activity against the hepatitis B virus: inhibit the hepatitis B virus both in vitro and in vivo

## Nc1ccn([C@H]2CS[C@@H](CO)O2)c(=O)n1 (stereo in doubt) [Compound 3TC, (2R,cis)-4-amino-1-(2-hydroxymethyl-1,3-oxathiolan-5-yl)-(1H)-pyrimidin-2-one]
Duck hepatitis B virus; [1]
  IC50: < 1 µg/mL

## Nc1ccn([C@@H]2CS[C@H](CO)O2)c(=O)n1 [Compound 3TC, (2R,cis)-4-amino-1-(2-hydroxymethyl-1,3-oxathiolan-5-yl)-(1H)-pyrimidin-2-one]
Hepatitis B virus
  activity against the hepatitis B virus: active both in vitro and in vivo
Human hepatitis B virus; Hepatitis B virus, HepG2, 240 h, 2.2.15 cells, 10 day treatment, extracellular HBV DNA, read-out: IC50
  IC50: 5.6 µM

## Nc1ncnc2c1ncn2[C@@H]1O[C@H](COP(=O)(O)O)[C@@H](O)[C@@H]1O [araAMP, adenosylarabinoside-5′-monophosphate]
Human hepatitis B virus; [2]
  IC50: 2.9 µM

## Nc1nc2c(ncn2[C@H]2C[C@@H](CO)[C@H](O)C2)c(=O)[nH]1 [cdG, carbocyclic deoxyguanosine]
Human hepatitis B virus; [2]
  IC50: 0.034 µM

## Nc1ccn([C@H]2CC[C@@H](CO)O2)c(=O)n1 [ddC, 2′,3′-dideoxycytidine]
Human hepatitis B virus; Hepatitis B virus, HepG2, 240 h, read-out: IC50 μM
  IC50: 2.2 µM

## Nc1nc(N)c2ncn([C@H]3CC[C@@H](CO)O3)c2n1 [ddDAPR, 2,6-diaminopurine-9-β-D-2′,3′-dideoxyribofuranoside]
Duck hepatitis B virus
  IC50: 0.07 µg/mL (≈ 0.28 µM)

## Nc1nc2c(ncn2[C@H]2CC[C@@H](CO)O2)c(=O)[nH]1 [ddG, 2′,3′-dideoxy-guanosine]
Duck hepatitis B virus; [1]
  IC50: 0.07 µg/mL (≈ 0.279 µM)
